Experimental data as given in patent US8877932B2, “Anhydrous lenalidomide form-I” (Natco Pharma Limited, priority 2010, dated 2014).
Values after ≈ are worked out from the molar mass of the structure shown. Where two headings read alike, the source gives them in different places.

Tests used:
[1] = reported in US 2005/0096351 A1; cited from earlier work
Equilibrium solubility = format: physicochemical; details: pH 1.8, 1% sodium lauryl sulfate
Method: A solid sample of 450 mg was stirred in 50 mL of dissolution medium (HCl buffer, pH 1.8, with 1% sodium lauryl sulfate) using a mechanical stir rod. Aliquots were filtered and centrifuged at 3500 rpm using 0.2-μm nylon syringe filters and immediately diluted 1 mL→50 mL, then 5 mL→425 mL with dissolution medium. In some cases, the undissolved solids were recovered and sent for X-ray powder diffraction (XPRD) studies.
(§1) Both the solubility and dissolution experiments were conducted in a medium of HCl buffer, pH 1.8, containing 1% sodium lauryl sulfate. The solubilities were estimated to be 3.15 mg/ml for Form 1 & 3.28 mg/ml for Form B, respectively.

[2] = Intrinsic dissolution (Woods apparatus); format: physicochemical; details: HCl buffer, pH 1.8, 1% sodium lauryl sulfate, 37° C., 50 rpm
Method: Dissolution experiments were carried out in a ELECTROLAB-8 dissolution apparatus equipped with a ETC-112 temperature controller. An intrinsic dissolution apparatus (Woods apparatus) was used. Samples were compressed at 2.0 metric tons for 1 min in KBr hydraulic press, giving a sample surface of 0.50 cm^2. A dissolution medium consisting of 900 mL HCl buffer, pH 1.8, with 1% sodium lauryl sulfate, was used for each experiment. The medium was degassed by vacuum filtration through a 0.45-μm nylon filter disk and maintained at 37° C. The apparatus was rotated at 50 rpm for each experiment. Aliquots were filtered immediately using 0.45-μm nylon syringe filters. In some cases, the undissolved solids were recovered and analyzed by X-ray powder diffraction (XRPD).
as §1

[3] = Thermal stability of Lenalidomide Form I; format: physicochemical; details: heating at 95 to 105° C. for 7 days
Method: The lenalidomide Form I obtained after drying temperature 65 to 75° C. under vacuum is taken subjected to heating at 95 to 105° C. in oil bath, kept in rotator vapor for 7 days, cool to room temperature and the sample is analyzed per IR, NMR, XRPD (X-ray powder diffractometry), DSC (differential scanning calorimetry) & TGA (thermogravimetry). […] The moisture content is also determined for sample and found to be less than 1%.

[4] = Accelerated stability studies; format: physicochemical
Method: The lenalidomide Form I sample are subjected to accelerated stability studies under following conditions & analyzed at initial after 1, 2, 3 and 6 months. • Condition 1—temperature: 40° C.±2° C. • Relative humidity: 75% RH±5% • Condition 1—temperature: 30° C.±2° C. • Relative humidity: 65% RH±5%
We have not observed major deviation in quality of samples analysed of initial samples after 1,2, 3 and 6 months.
No increase in impurity profile is observed in 1,2, 3 and 6 months sample.

Humidity test = format: physicochemical
Method: The anhydrous form of lenalidomide along with two batches (0812/006 & 0812/007 &) were subjected for humidity test.
NaBr, NH4Cl, KOH, Na2HPO4 were used as Saturated solution at temperature 25.1° C., 25° C., 24.7° C., 26.8° C. and humidity 84%, 79%, 23%, 93% respectively at initial water content of 0.08%.

[5] = Storage stability at room temperature; format: physicochemical; details: more than a year at room temperature (25-35° C.)
Method: The thus obtained anhydrous novel form is very stable at room temperature (25-35° C.) and is not absorbing water or converting to any reported hydrated forms.

[6] = Encapsulated Form I compared with […] capsules (XRPD, moisture content); format: physicochemical
Description: The sample of lenalidomide Form I API is encapsulated & compared with the […] capsules.

Bulk density = format: physicochemical
Description: Batch No—0812/006 • Untapped Density—0.286 g/ml • Tapped density—0.481 g/ml • III. Batch No—0812/006 • Untapped Density—0.286 g/ml • Tapped density—0.481 g/ml

[7] = Moisture content of prepared Form-I samples; format: physicochemical; details: samples as prepared
[8] = 40° C./75% RH and 30° C./65% RH, 1, 2, 3 and 6 months

## Nc1cccc2c1CN(C1CCC(=O)NC1=O)C2=O (centres unmarked) [Form A, 3-(4-amino-1-oxo-1,3-dihydro-isoindol-2-yl)-piperidine-2,6-Dione]
[1]
  hygroscopicity: not hygroscopic

## Nc1cccc2c1CN(C1CCC(=O)NC1=O)C2=O (centres unmarked) [Form-I, 3-(4-amino-1-oxo-1,3-dihydro-isoindole-2-yl)-piperidine-2,6-dione]
Equilibrium solubility; HCl buffer with 1% sodium lauryl sulfate, 25 °C, pH 1.8, aqueous with cosolvent or surfactant or cyclodextrin, thermodynamic from solid, read-out: solubility
  solubility: 3150 µg/mL (≈ 12.1 mM)
[2]
  dissolution rate: 0.421 mg/min/cm^2
[3]
  change in impurity profile: No further change
  change in spectral data (IR, NMR, XRPD, DSC, TGA): No change is observed
  moisture content after heating: less than 1%
[4]; [8]
  impurity profile: No increase
  moisture content after accelerated stability storage: 0.21 % w/w
[4]; 40° C./75% RH and 30° C./65% RH, up to 6 months
  conversion to hydrated polymorphic form: not converted in any of the hydrated polymorphic form
[4]; before accelerated stability storage
  moisture content, initial: 0.09 % w/w
Humidity test; KOH saturated solution, 24.7° C., humidity 23%
  water content after humidity test: 0.12 % w/w
Humidity test; NH4Cl saturated solution, 25° C., humidity 79%
  water content after humidity test: 0.13 % w/w
Humidity test; Na2HPO4 saturated solution, 26.8° C., humidity 93%
  water content after humidity test: 0.10 % w/w
Humidity test; NaBr saturated solution, 25.1° C., humidity 84%
  water content after humidity test: 0.21 % w/w
Humidity test; before humidity test
  initial water content: 0.08%
[5]
  conversion to hydrated form on storage: not converted into any hydrated from
[6]
  polymorphic form after encapsulation (XRPD): not changed even after encapsulation
Bulk density; listed as 0812/005
  Tapped density: 0.465 g/mL
  Untapped Density: 0.278 g/mL
Bulk density; listed as 0812/006
  Tapped density: 0.481 g/mL
  Untapped Density: 0.286 g/mL
[7]
  moisture content: less than 0.1%

## Nc1cccc2c1CN(C1CCC(=O)NC1=O)C2=O (centres unmarked) [Form-B, 3-(4-amino-1-oxo-1,3-dihydro-isoindole-2-yl)-piperidine-2,6-dione, reference compound]
Equilibrium solubility; HCl buffer, 25° C.
  solubility: 3280 µg/mL (≈ 12.7 mM)
[2]
  dissolution rate: 0.250 mg/min/cm^2
[1]
  moisture content: 3.1%

## Nc1cccc2c1CN(C1CCC(=O)NC1=O)C2=O (centres unmarked) [Form-E, 3-(4-amino-1-oxo-1,3-dihydro-isoindole-2-yl)-piperidine-2,6-dione]
[1]
  moisture content: 11.9%
